The compounds below were run against T1, Endothelial lipase (EL) (Homo sapiens, UniProt Q9Y5X9) (assay: Endothelial lipase (EL) enzymatic assay, fluorescent substrate A10070 in DMPG vesicles). Conditions: EL from conditioned media of HT-1080 cells; compound preincubated 30 min at 37° C; read-out: EL IC50.
T1 construct: HT-1080 cells that were transformed using RAGE technology (Athersys) to overexpress endogenous EL; endogenous in cells; conditioned medium used
T1 sequence (Q9Y5X9 21-500): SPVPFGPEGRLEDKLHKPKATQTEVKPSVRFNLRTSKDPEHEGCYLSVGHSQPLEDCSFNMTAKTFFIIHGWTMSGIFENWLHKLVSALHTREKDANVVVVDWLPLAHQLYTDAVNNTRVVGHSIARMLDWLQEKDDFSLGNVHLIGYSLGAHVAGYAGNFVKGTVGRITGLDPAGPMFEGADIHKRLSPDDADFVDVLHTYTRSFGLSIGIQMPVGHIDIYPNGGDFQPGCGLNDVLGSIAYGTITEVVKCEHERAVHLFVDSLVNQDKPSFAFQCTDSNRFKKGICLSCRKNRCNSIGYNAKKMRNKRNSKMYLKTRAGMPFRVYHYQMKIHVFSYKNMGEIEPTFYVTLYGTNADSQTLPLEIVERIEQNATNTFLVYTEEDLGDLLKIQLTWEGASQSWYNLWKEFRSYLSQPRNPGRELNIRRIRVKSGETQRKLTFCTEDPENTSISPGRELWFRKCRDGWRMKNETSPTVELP
Format: biochemical
Method: Endothelial lipase (EL) and hepatic lipase (HL) activities were measured using a fluorescent substrate, A10070, (Invitrogen, CA) doped into an artificial vesicle containing DMPG (Avanti Polar Lipids) as the excipient. Vesicles were prepared by combining 571 μL of 29 mM DMPG in a 1:1 mixture of MeOH and CHCl3 with 2000 μL of 1 mM A10070 in a 1:1 mixture of MeOH and CHCl3. The mixture was dried under nitrogen in multiple vials then resuspended in 20 mL total volume of 50 mM HEPES pH 8.0 buffer containing 50 mM NaCl and 0.2 mM EDTA. The sample was allowed to sit at room temperature for 15 min and then was sonicated 3×4 mins on ice with a Branson Sonicator using duty cycle 1. This preparation provides vesicles with a mole fraction of 0.11 for the FRET substrate.
The enzymatic assay was measured using 384-well white Optiplates. Each well contained 20 μL of assay buffer (50 mM HEPES pH 8.0, 50 mM NaCl and 1 mM CaCl2) and 0.25 μL of a DMSO solution containing a compound of interest. EL or HL (10 μL) was added and allowed to incubate with the compound for 30 min at 37° C. The source of EL was conditioned media obtained from HT-1080 cells that were transformed using RAGE technology (Athersys) to overexpress endogenous EL, and HL was partially purified from conditioned media obtained from COS cells overexpressing HL. The reaction was started by the addition of 10 μL of a 1:10 dilution of vesicles. The final total reaction volume was […]. The reaction rates were measured on a Gemini plate reader with an excitation wavelength of 490 nm and an emission wavelength of 530 nm. Readings were taken over a period of 60 minutes, and the slope between 300 and 900 secs of the readout was used to calculate the rate of the reaction.

SMILES | IC50 [nM]
CC1(Cc2nnc(C(c3nc4ccc(-c5ccc(C(=O)N6CCOCC6)cc5)cc4s3)S(=O)(=O)Cc3ccccc3)o2)NC(=O)NC1=O (stereo not drawn) [Example 5, 5-((5-((benzylsulfonyl)(6-(4-(morpholine-4-carbonyl)phenyl)benzo[d]thiazol-2-yl)methyl)-1,3,4-oxadiazol-2-yl)methyl)-5-methylimidazolidine-2,4-dione] | 30
CC1(Cc2nnc(C(c3nc4ccc(-c5ccc(C(=O)N6CCOCC6)cc5)cc4s3)S(=O)(=O)Cc3ccccc3)o2)NC(=O)NC1=O (stereo not drawn) [Example 8, 5-((5-((benzylsulfonyl)(6-(4-(morpholine-4-carbonyl)phenyl)benzo[d]thiazol-2-yl)methyl)-1,3,4-oxadiazol-2-yl)methyl)-5-methylimidazolidine-2,4-dione] | 62
O=S(=O)(O)Cc1nnc(C(c2nc3ccc(-c4ccc(OCc5ccccc5)cc4)cc3s2)S(=O)(=O)CCC(F)(F)F)o1 (stereo not drawn) [Example 11, (5-((6-(4-(benzyloxy)phenyl)benzo[d]thiazol-2-yl)((3,3,3-trifluoropropyl)sulfonyl)methyl)-1,3,4-oxadiazol-2-yl)methanesulfonic acid] | > 10
O=C(OCc1ccccc1)N1CCC(S(=O)(=O)C(c2nnc(CS(=O)(=O)O)o2)c2nc3ccc(-c4ccccc4)cc3s2)CC1 (stereo not drawn) [Example 32, (5-(((1-((benzyloxy)carbonyl)-4-piperidinyl)sulfonyl)(6-phenyl-1,3-benzothiazol-2-yl)methyl)-1,3,4-oxadiazol-2-yl)methanesulfonic acid] | < 10
CC(C)(C)OC(=O)N1CC(c2nnc(C(c3nc4ccc(-c5ccccc5)cc4s3)S(=O)(=O)Cc3ccccc3)o2)C1 (stereo not drawn) [Example 33, tert-butyl 3-(5-((benzylsulfonyl) (6-phenylbenzo[d]thiazol-2-yl)methyl)-1,3,4-oxadiazol-2-yl)azetidine-1-carboxylate] | 14
O=S(=O)(O)Cc1nnc(C(c2nc3ccc(-c4ccccc4)cc3s2)S(=O)(=O)Cc2ccc(F)cc2)o1 (stereo not drawn) [Example 34, (5-(((4-fluorobenzyl)sulfonyl)(6-phenylbenzo [d]thiazol-2-yl)methyl)-1,3,4-oxadiazol-2-yl)methanesulfonic acid] | 131
NS(=O)(=O)Cc1nnc(C(c2nc3ccc(-c4ccccc4)cc3s2)S(=O)(=O)CCC(F)(F)F)o1 (stereo not drawn) [Example 35] | < 10
O=S(=O)(CCC(F)(F)F)NS(=O)(=O)Cc1nnc(C(c2nc3ccc(-c4ccccc4)cc3s2)S(=O)(=O)CCC(F)(F)F)o1 (stereo not drawn) [Example 36, 3,3,3-trifluoro-N-(((5-((6-phenylbenzo[d]thiazol-2-yl)((3,3,3-trifluoropropyl)sulfonyl)methyl)-1,3,4-oxadiazol-2-yl)methyl)sulfonyl)propane-1-sulfonamide] | < 10
NS(=O)(=O)Cc1nnc(C(c2nc3ccc(-c4ccccc4)cc3s2)S(=O)(=O)Cc2ccccc2)o1 (stereo not drawn) [Example 37, (5-((benzylsulfonyl)(6-phenylbenzo[d]thiazol-2-yl)methyl)-1,3,4-oxadiazol-2-yl)methanesulfonamide] | < 10
CC(C)(C)OC(=O)N1CC(S(=O)(=O)C(c2nnc(CS(N)(=O)=O)o2)c2nc3ccc(-c4ccccc4)cc3s2)C1 (stereo not drawn) [Example 38, tert-butyl 3-(((6-phenylbenzo[d]thiazol-2-yl)(5-(sulfamoylmethyl)-1,3,4-oxadiazol-2-yl)methyl)sulfonyl)azetidine-1-carboxylate] | < 10
CN(C)C(=O)Cc1nnc(C(c2nc3ccc(-c4ccccc4)cc3s2)S(=O)(=O)Cc2ccccc2)o1 (stereo not drawn) [Example 39, 2-(5-((benzylsulfonyl)(6-phenylbenzo[d]thiazol-2-yl)methyl)-1,3,4-oxadiazol-2-yl)-N,N-dimethylacetamide] | 190
N#CC1(NC(=O)Cc2nnc(C(c3nc4ccc(-c5ccccc5)cc4s3)S(=O)(=O)Cc3ccccc3)o2)CC1 (stereo not drawn) [Example 40, 2-(5-((benzylsulfonyl)(6-phenylbenzo[d]thiazol-2-yl)methyl)-1,3,4-oxadiazol-2-yl)-N-(1-cyanocyclopropyl)acetamide] | < 10
CN(C)C(=O)CCc1nnc(C(c2nc3ccc(-c4ccccc4)cc3s2)S(=O)(=O)Cc2ccccc2)o1 (stereo not drawn) [Example 41, 3-(5-((benzylsulfonyl)(6-phenylbenzo[d]thiazol-2-yl)methyl)-1,3,4-oxadiazol-2-yl)-N,N-dimethylpropanamide] | 58

More lines, now with the values ahead:

IC50 [nM] | SMILES
< 10 | CS(=O)(=O)C(c1nnc(CC2SC(=O)NC2=O)o1)c1nc2ccc(-c3ccc(F)nc3)cc2s1 (stereo not drawn) [Example 3, 5-((5-((6-(6-fluoro-3-pyridinyl)-1,3-benzothiazol-2-yl)(methylsulfonyl)methyl)-1,3,4-oxadiazol-2-yl)methyl)-1,3-thiazolidine-2,4-dione]
46 | CS(=O)(=O)C(c1nnc(CC2NC(=O)NC2=O)o1)c1nc2ccc(-c3ccc(C(=O)N4CCOCC4)cc3)cc2s1 (stereo not drawn) [Example 16, 5-((5-((methylsulfonyl)(6-(4-(morpholine-4-carbonyl)phenyl)benzo[d]thiazol-2-yl)methyl)-1,3,4-oxadiazol-2-yl)methyl)imidazolidine-2,4-dione]
< 10 | Cc1noc(C)c1-c1ccc2nc(C(c3nnc(CC4SC(=O)NC4=O)o3)S(C)(=O)=O)sc2c1 (stereo not drawn) [Example 19, 5-((5-((6-(3,5-dimethylisoxazol-4-yl)benzo[d]thiazol-2-yl)(methylsulfonyl)methyl)-1,3,4-oxadiazol-2-yl)methyl) thiazolidine-2,4-dione]
< 10 | Cc1nn(C)cc1-c1ccc2nc(C(c3nnc(CC4SC(=O)NC4=O)o3)S(C)(=O)=O)sc2c1 (stereo not drawn) [Example 20, 5-((5-((6-(1,3-dimethyl-1H-pyrazol-4-yl)benzo[d]thiazol-2-yl)(methylsulfonyl)methyl)-1,3,4-oxadiazol-2-yl)methyl) thiazolidine-2,4-dione]
< 10 | Cn1cc(-c2ccc3nc(C(c4nnc(CC5SC(=O)NC5=O)o4)S(C)(=O)=O)sc3c2)cn1 (stereo not drawn) [Example 24, 5-((5-((6-(1-methyl-1H-pyrazol-4-yl)benzo[d]thiazol-2-yl)(methylsulfonyl)methyl)-1,3,4-oxadiazol-2-yl)methyl) thiazolidine-2,4-dione]
< 10 | Cc1nccn1-c1nc(-c2ccc3nc(C(c4nnc(CC5SC(=O)NC5=O)o4)S(C)(=O)=O)sc3c2)cs1 (stereo not drawn) [Example 25, 5-((5-((6-(2-(2-methyl-1H-imidazol-1-yl)thiazol-4-yl)benzo[d]thiazol-2-yl)(methylsulfonyl)methyl)-1,3,4-oxadiazol-2-yl)methyl) thiazolidine-2,4-dione]
< 10 | CS(=O)(=O)C(c1nnc(CS(=O)(=O)O)o1)c1nc2ccc(-c3ccccc3)cc2s1 (stereo not drawn) [Example 28, (5-((methylsulfonyl) (6-phenyl-1,3-benzothiazol-2-yl)methyl)-1,3,4-oxadiazol-2-yl) methanesulfonic acid]
< 10 | CC1(Cc2nnc(C(c3nc4ccc(-c5ccccc5)cc4s3)S(C)(=O)=O)o2)NC(=O)NC1=O (stereo not drawn) [Example 29, 5-methyl-5-((5-((methylsulfonyl)(6-phenyl-1,3-benzothiazol-2-yl)methyl)-1,3,4-oxadiazol-2-yl)methyl)-2,4-imidazolidinedione]
16 | CS(=O)(=O)C(c1nnc(CC2NC(=O)NC2=O)o1)c1nc2ccc(-c3ccccc3)cc2s1 (stereo not drawn) [Example 30, 5-((5-((methylsulfonyl) (6-phenyl-1,3-benzothiazol-2-yl)methyl)-1,3,4-oxadiazol-2-yl)methyl)-2,4-imidazolidinedione]
< 10 | CS(=O)(=O)C(c1nnc(CC2SC(=O)NC2=O)o1)c1nc2ccc(-c3ccccc3)cc2s1 (stereo not drawn) [Example 31, 5-((5-((methylsulfonyl) (6-phenyl-1,3-benzothiazol-2-yl)methyl)-1,3,4-oxadiazol-2-yl)methyl)-1,3-thiazolidine-2,4-dione]
< 10 | C[C@]1(Cc2nnc(C(c3nc4ccc(-c5ccccc5)cc4s3)S(C)(=O)=O)o2)OC(=O)NC1=O (stereo partly drawn) [Example 42, (5R)-5-Methyl-5-((5-((methylsulfonyl)(6-phenylbenzo[d]thiazol-2-yl)methyl)-1,3,4-oxadiazol-2-yl)methyl)oxazolidine-2,4-dione]
